Experiment [1] concerns GBP-1. Description: LPS-induced GBP-1 mRNA in THP-1 monocytes, real time PCR. The class given is cell-based, human. As to conditions: THP-1, LPS 100 ng/ml, 2 hour stimulation. Here is the method: (§1) For real time PCR analyses, THP-1 cells (10^7/group) were cultured at 10^6/ml in RPMI containing 10% heat inactivated fetal calf serum, 2 mM L-glutamine with either medium, BMS-205820 (2 uM), or dexamethasone (100 nM) for 30 minutes at 37° C. in 5% CO2. LPS was added to each group (100 ng/ml), and the incubation continued for 0.5-8 hr. At the end of each time point, cells were pelleted, washed one time with 10 ml PBS, and stored at −80° C.
(§2) Total RNA was isolated from cells using the RNeasy® Kit from Qiagen (Valencia, Calif.), including the on-the-column DNase digestion procedure. RNA quality and quantity were evaluated using UV spectrometry. Total RNA was used for first-strand cDNA synthesis using the SuperScript™ First-Strand Synthesis System for RT-PCR (Invitrogen, Carlsbad, Calif.) following the manufacturer's instructions with 50 ng of random hexamers.
(§3) Reactions were performed in a total volume of 40 μl. The master mix contained SYBR Green I Dye, 50 mM Tris-HCl pH8.3, 75 mM KCl, DMSO, Rox reference dye, 5 mM MgCl2, 2 mM dNTP, Platinum Taq High Fidelity (1 U/reaction), and 0.5 μM of each primer. Eight microliters of diluted cDNA was used in each PCR reaction. […]
(§4) A relative value for the initial target concentration in each reaction was determined using the TaqMan 5700 software. […]
A general note: In qPCR the cycle at which signal appears reflects the starting amount.

Experiment [2] deals with GBP-5. Description: GBP-5 mRNA in resting and stimulated THP-1 monocytes, microarray. The class given is cell-based, human. The conditions noted are these: IFN-γ 100 U/ml, TNFα 10 ng/ml, LPS 100 ng/ml, FIG. 92B. Here is the method:
(§5) For the microarray analyses, THP-1 cells (10^7/group) were cultured at 10^6/ml as above for 1, 6, 24, or 48 hours with either medium, TNFα (10 ng/ml), IFN-γ(100 U/ml), or LPS (100 ng/ml). At each time point, mRNA was isolated, labeled, and used to probe Affymetrix HG_U95Av2, HG_U95B, and HG_U95C chips.

Experiment [3] relates to GBP-1. Description: GBP-1 mRNA in resting and stimulated THP-1 monocytes, microarray. Type of experiment: cell-based, human. As to conditions: IFN-γ 100 U/ml, TNFα 10 ng/ml, LPS 100 ng/ml, FIG. 92A. The protocol:
as §5

Experiment [4] has as its system GBP-5. As to the kind of experiment: LPS-induced GBP-5 mRNA in THP-1 monocytes, real time PCR. The class given is cell-based, human. As to conditions: THP-1, LPS 100 ng/ml, 2 hour stimulation. The protocol: as §1, §2, §3, §4
The target of experiment [5] is T1, TNF-α (Homo sapiens, UniProt P01375).
T1 construct: host or cells: RA patients (in vivo)
As to conditions: cited from earlier work.

Experiment [6] relates to GBP-1. As to the kind of experiment: GBP-1 mRNA in stimulated synovial fibroblasts from rheumatoid arthritis patients, microarray. The class given is cell-based, human. The conditions noted are these: RA synovial fibroblasts; TNFα, IL-1α, IL-17 10 ng/ml, IL-17b-Ig 5 ng/ml; FIG. 94A. The protocol: Synovial fibroblasts were obtained from Cell Applications, Inc. (San Diego, Calif.), and cultured for 1, 6, or 24 hours with either medium, TNFα (10 ng/ml), IL-1α (10 ng/ml, Peprotech), IL-17 (10 ng/ml, R&D Systems, Minneapolis, Minn.), or IL-17b-Ig fusion protein (5 ng/ml). The IL-17b protein was produced by fusing the full length IL-17b sequence (Shi et al., J. Biol. Chem. 275:19167-19176 (2000)) to the human IgG1 Fc region. At each time point, mRNA was isolated, labeled, and used to probe Affymetrix HG_U95Av2, HG_U95B, HG_U95C, HG_U95D, and HG_U95E chips.

Experiment [7] deals with Fc gamma RI. The conditions noted are these: RA patients, monocytes; cited from earlier work.
Experiment [8] concerns GBP-1. Description: GBP-1 expression in stimulated human microvascular endothelial cells, microarray. The class given is cell-based. The conditions noted are these: three donors, TNFα 10, IL-1β 10, VEGF 30, bFGF 10 ng/ml, FIG. 93A. Here is the method: (§6) Human microvascular endothelial cells from three different donors were obtained from Clonetics (Walkersville, Md.), and cultured in EGM-2 medium (Clonetics). Cells were cultured in 100 mm dishes coated with mouse type IV collagen and allowed to grow to approximately 80% confluency. The cells were then stimulated for 1, 6, or 24 hours with either medium, TNFα (10 ng/ml), or IL-1β (10 ng/ml). At each time point, mRNA was isolated, labeled and used to probe Affymetrix HG_U95Av2 and HG_U95B chips.
(§7) For VEGF and bFGF stimulations, microvascular endothelial cells from three independent donors were obtained, cultured in 100 mm dishes coated with mouse type IV collagen and allowed to grow to 30% confluency. At this time, the media was replaced with DMEM containing 2% fetal calf serum, and the cells were cultured an additional day. The cells were stimulated for 1, 6, or 24 hours with either medium, VEGF (30 ng/ml) or bFGF (10 ng/ml). At each time point, mRNA was isolated, labeled, and used to probe Affymetrix chips as described above.

In experiment [9] the test system is GBP-5. Description: GBP-5 mRNA in stimulated mouse fibroblasts, real time PCR. The conditions noted are these: 2 or 8 hours, TNFα 10 ng/ml or PMA 10 ng/ml, FIG. 90B. The class given is cell-based. Here is the method: (§8) Wild type 3T3 fibroblasts and immortalized fibroblast lines derived from p65 and IkBα germline knockouts were cultured in DMEM with 10% calf serum, glutamax and penicillin/streptomycin. Primary embryonic fibroblasts derived from germline knockouts of relB and p50 were cultured in DMEM with 10% fetal calf serum, glutamax and penicillin/streptomycin. The fibroblasts were plated at 5×10^5/well of a 6 well plate and cultured overnight at 37° C. in 5% CO2. Cells were stimulated for 2 or 8 hours with either medium, human TNFα (10 ng/ml) or PMA (10 ng/ml). At each time point, cells were harvested using trypsin/EDTA, washed one time with PBS, and stored at −80° C.
as §2
(§9) Reactions were performed in a total volume of 40 μl. […]
as §4

Experiment [10] has as its system IL-1. As to conditions: RA patients; cited from earlier work.
For experiment [11], the system named is GBP-5. As to the kind of experiment: GBP-5 expression in stimulated human microvascular endothelial cells, microarray. The class given is cell-based. The conditions noted are these: for donors whose cells upregulated GBP-5 mRNA: human microvascular endothelial cells from three donors; for induction of GBP-5: human microvascular endothelial cells, three donors, TNFα 10, IL-1β 10 ng/ml, FIG. 93B. Here is the method: as §6, §7

The test system of experiment [12] is mouse GBP-1. Description: GBP-1 mRNA in stimulated mouse fibroblasts, real time PCR. As to conditions: 2 or 8 hours, TNFα 10 ng/ml or PMA 10 ng/ml, FIG. 90A. Type of experiment: cell-based. Here is the method:
as §8, §2, §9, §4

Experiment [13] concerns the target T2, IL-15 (Mus musculus, UniProt P48346).
T2 construct: host or cells: mice (collagen-induced arthritis model)
T2 sequence (P48346 49-162): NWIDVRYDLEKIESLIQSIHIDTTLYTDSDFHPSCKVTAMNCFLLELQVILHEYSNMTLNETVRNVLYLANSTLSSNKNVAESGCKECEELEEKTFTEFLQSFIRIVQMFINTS
As to conditions: administration to mice; cited from earlier work.

T1 sequence (P01375 77-233 limits assumed): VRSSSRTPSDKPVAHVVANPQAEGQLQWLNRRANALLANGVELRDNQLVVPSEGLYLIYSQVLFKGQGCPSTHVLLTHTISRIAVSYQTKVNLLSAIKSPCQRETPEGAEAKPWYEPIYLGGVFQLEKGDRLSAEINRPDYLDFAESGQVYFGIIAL

Take “lipopolysaccharide [LPS, reference compound]”: in experiment [1], the “steady-state mRNA level of GBP-1” value is listed as “significantly increased”. Besides, the “steady state level of GBP-5 mRNA” value in experiment [2] is on record as “Much lower levels of expression were induced”. In addition, the “steady state level of GBP-1 mRNA” value in experiment [3] was “Much lower levels of expression were induced”. The “steady-state mRNA level of GBP-5” value in experiment [4] is “significantly increased”.

For Etanercept, in [5] (RA patients), the “number of swollen joints” value is recorded as “significant decrease”; the “numbers of T cells and plasma cells in the synovium” value is listed as “significant decrease”. Besides, the “expression of VCAM-1 and IL-1 in the synovium” value in experiment [5] (treated patients) was “decrease”.

As to “interferon-γ: cytokine used as stimulus of THP-1 monocytes”, the “steady state level of GBP-5 mRNA” value in experiment [2] is given as “strongly induced”. Also, in [3], the “steady state level of GBP-1 mRNA” value is listed as “strongly induced”.

“IL-17: cytokine used as stimulus of synovial fibroblasts (R&D Systems)”: the “GBP-1 mRNA induction” value in [6] is on record as “not”.

As for `C[C@]12C=CC(=O)C=C1CC[C@@H]1[C@@H]2[C@@H](O)C[C@@]2(C)[C@H]1CC[C@]2(O)C(=O)CO` [prednisolone], the “Fc gamma RI expression” value in [7] is listed as “induced down-regulation”.

As to VEGF, in experiment [8], the GBP-1 expression entry is given as “No induction”.

As to `CCCCCCCCCCCCCC(=O)O[C@@H]1[C@@H](C)[C@@]2(O)[C@@H](C=C(CO)C[C@]3(O)C(=O)C(C)=C[C@@H]23)[C@@H]2C(C)(C)[C@]12OC(C)=O` [PMA, reference compound], the “steady-state level of GBP-5 mRNA” value in experiment [9] was “not”.

As for “IL-1Ra: natural inhibitor of IL-1, recombinant human IL-1 receptor antagonist”, the “clinical symptoms and rate of progressive joint damage” value in [10] was “significantly reduced”.

“IL-1β: cytokine used as stimulus of endothelial cells”: in [11], the “donors whose cells upregulated GBP-5 mRNA” value is “Only one donor” and the “induction of GBP-5” value is “variable”. Further, the GBP-1 expression result in experiment [8] was “strongly induced”.

For the molecule “basic FGF: growth factor used as stimulus of endothelial cells”, the GBP-1 expression entry in experiment [8] is listed as “No induction”.

For the molecule TNFα, the “steady state level of GBP-5 mRNA” value in experiment [2] was “Much lower levels of expression were induced”. Further, in experiment [11], the “donors whose cells upregulated GBP-5 mRNA” value was “two out of three” and the “induction of GBP-5” value was “variable”. Moreover, in [9], the “steady-state level of GBP-5 mRNA” value is “induced increased steady-state levels”. Moreover, the GBP-1 expression result in [8] is reported as “strongly induced”. In addition, the “steady state level of GBP-1 mRNA” value in experiment [3] is “Much lower levels of expression were induced”. Moreover, the “steady-state level of GBP-1 mRNA” value in [12] is “induced increased steady-state levels”. Besides, in experiment [6], the “GBP-1 mRNA induction” value is “induced at 1 and 6 hours”.

B1: IL-1a: cytokine used as stimulus of synovial fibroblasts (Peprotech) (protein, UniProt P01583 113-271, looked up)
Interleukin-1 alpha: SAPFSFLSNVKYNFMRIIKYEFILNDALNQSIIRANDQYLTAAALHNLDEAVKFDMGAYKSSKDDAKITVILRISKTQLYVTAQDEDQPVLLKEMPEIPKTITGSETNLLFFWETHGTKNYFTSVAHPNLFIATKQDYWVCLAGGPPSITDFQILENQA
As to B1, the “GBP-1 mRNA induction” value in [6] is “induced at 1 and 6 hours”.

B2: soluble IL-15 receptor alpha chain: soluble IL-15 receptor alpha chain administered to mice (protein, UniProt Q60819 33-205, looked up)
extracellular domain: GTTCPPPVSIEHADIRVKNYSVNSRERYVCNSGFKRKAGTSTLIECVINKNTNVAHWTTPSLKCIRDPSLAHYSPVPTVVTPKVTSQPESPSPSAKEPEAFSPKSDTAMTTETAIMPGSRLTPSQTTSAGTTGTGSHKSSRAPSLAATMTLEPTASTSLRITEISPHSSKMTK
modifications: extracellular domain
notes: soluble IL-15 receptor alpha chain administered to mice
In the case of B2, the collagen-induced arthritis entry in [13] is “prevented”.

B3: IL-17b: full length IL-17b sequence fused to the human IgG1 Fc region (protein)
chain: QPRSPKSKRKGQGRPGPLAPGPHQVPLDLVSRMKPYARMEEYERNIEEMVAQLRNSSELAQRKCEVNLQLWMSNKRSLSPWGYSINHDPSRIPVDLPEARCLCLGCVNPFTMQEDRSMVSVPVFSQVPVRRRLCPPPPRTGPCRQRAVMETIAVGCTCIF
For the molecule B3, the “GBP-1 mRNA induction” value in experiment [6] was “not”.

(Values after patent US7670785B2, “Polynucleotides and polypeptides associated with the development of rheumatoid arthritis” (Bristol-Myers Squibb Company, priority 2001, dated 2010).)
